The results in this text go back to BindingDB's records for doi:10.1016/j.bmcl.2007.02.059 (Johnson & Johnson Pharmaceutical Research & Development, 2007).

Structures are written as SMILES.

For `CN(C)c1nc2ccc1CCCn1cc(c3ccccc31)C1=C(C(=O)NC1=O)c1cn(c3ccccc13)CC2`, the half-inhibitory concentration (IC50) in the test “Inhibition of human Rsk2” came out at 850 nM; in the test “Inhibition of human Rsk3”, 48 nM.
